The numbers were not newly measured in US20160015711A1, “CALCIUM PTERIN-6-CARBOXYLATE (CaPTERIN-6-COOH) AS A NOVEL IMMUNO-THERAPEUTIC” (SanRx Pharmaceuticals, Inc., priority 2014, published 2016), which cites them from elsewhere.

Each structure is given as a SMILES string.

For this data set the following is noted: pH <4.

Turning to `Nc1nc([O-])c2nccnc2n1.Nc1nc([O-])c2nccnc2n1.[Ca+2]` [DCP, dipterinyl calcium pentahydrate], the “stability under acidic conditions” value is reported as “breaks down to form CaPterin”.
